# Test results as given in patent US20050074834A1 (priority 2001, published 2005).
# Entries after “also recorded” stand apart in the source; their conditions may differ. Counter-ions that a name gives are not always drawn.
# Experiments:
# [1] = test system: erythrophores; format: cell-based
# [2] = test system: chromatophores
# [3] = test system: chromatophore/neuronal cell; format: cell-based
# [4] = test system: chromatophore/fungal cell; format: cell-based
# [5] = test system: chromatophores; format: cell-based
# [6] = test system: melanophores; format: cell-based
# [7] = test system: chromatophores; assay: cells; conditions: read-out: Threshold concentration PPM
# [8] = test system: chromatophore/protozoal cell; format: cell-based
# [9] = test system: xanthophores; format: cell-based
# [10] = test system: fish chromatophores; format: cell-based
# [11] = test system: iridophores; format: cell-based
# [12] = test system: chromatophore/bacterial cell; format: cell-based
# [13] = test system: Betta chromatophores; format: cell-based
# [14] = test system: Hemichromis bimaculatus chromatophores; format: cell-based
# [15] = test system: Betta chromatophores; format: cell-based, Betta splendens
# [16] = test system: Betta splendens chromatophores; format: cell-based
# [17] = test system: Betta splendens erythrophores; format: cell-based
# [18] = test system: ryanodine receptors; conditions: cited from earlier work
compound,measurement,setting,value
"c1ccc2cc3c(ccc4ccccc43)cc2c1 [1,2-Benzanthracene]",Chromatophore response Erythrophores,[1],Imp.
same,Threshold concentration PPM,[2],X (key: X=1 to 100 PPM; XX=100 to 1000 PPM)
Nc1ncnc2c1ncn2[C@@H]1O[C@H](COP(=O)(O)OP(=O)(O)OP(=O)(O)O)[C@@H](O)[C@H]1O [ATP],2-Cell Cytosensor (second cell type included),[3],Erythr. Aggr.
same,Threshold concentration PPM,[2],X (key: X=1 to 100 PPM; XX=100 to 1000 PPM)
c1cc2c3c(cccc3c1)CC2 [Acenapthene],Chromatophore response Erythrophores,[1],Imp.
same,Threshold concentration PPM,[2],X (key: X=1 to 100 PPM; XX=100 to 1000 PPM)
C[C@@H]1[C@H](O)[C@@H](C)/C=C/C=C/C=C/C=C/C=C/C=C/C=C/[C@H](O[C@@H]2O[C@H](C)[C@@H](O)[C@H](N)[C@@H]2O)C[C@@H]2O[C@](O)(C[C@@H](O)C[C@@H](O)[C@H](O)CC[C@@H](O)C[C@@H](O)CC(=O)O[C@H]1C)C[C@H](O)[C@H]2C(=O)O [Amphotericin B],2-Cell Cytosensor (second cell type included),[4],Normal
same,Response time Hr.,[2],XX (key: X=1-6 hr; XX=6-24 hr)
same,Threshold concentration PPM,[2],X (key: X=1 to 100 PPM; XX=100 to 1000 PPM)
Cn1c(=O)c2c(ncn2C)n(C)c1=O [Caffeine],concentration printed for an analyte to which chromatophores respond,[5],100 µM
same,Threshold concentration PPB,[2],XXX
COc1cc(CNC(=O)CCCC/C=C/C(C)C)ccc1O [Capsaicin],Chromatophore response Melanophores,[6],Hollow-
same,minimal effective concentration,[7],1 to 100 µg/mL
C[N+](C)(C)CCOC(N)=O [Carbachol],2-Cell Cytosensor (second cell type included),[3],Erythr. Aggr.
same,minimal effective concentration,[7],1 to 100 µg/mL
CCN(CC)CCCC(C)Nc1ccnc2cc(Cl)ccc12 (centres unmarked) [Chloroquine],2-Cell Cytosensor (second cell type included),[8],Normal
same,Response time Hr.,[2],XX (key: X=1-6 hr; XX=6-24 hr)
same,minimal effective concentration,[7],100 to 1000 µg/mL
Clc1cccc(Cl)c1N=C1NCCN1 [Clonidine],Chromatophore response Xanthophores,[9],Disp.
same,chromatophore response after forskolin and PMSF,[10],no aggregation occurred
same,chromatophore response in the absence of forskolin,[10],aggregate; also recorded: aggregation
same,chromatophore response in the presence of forskolin,[10],unresponsive; also recorded: not detectable
same,Threshold concentration PPB,[2],XX (key: X=1 to 100 PPB; XX=100 to 1000 PPB)
COP(=O)(OC)OC=C(Cl)Cl [Dichlorvos],Chromatophore response Erythrophores,[1],Imp. (FS)
same,Chromatophore response Iridophores,[11],"Hue change, then Imp."
same,Response time Hr.,[2],X (key: X=1-6 hr; XX=6-24 hr)
C=C[C@@]1(C)CC(=O)[C@]2(O)[C@@]3(C)[C@@H](O)CCC(C)(C)[C@@H]3[C@H](O)[C@H](OC(C)=O)[C@@]2(C)O1 [Forskolin],concentration printed for an analyte to which chromatophores respond,[5],0.01 µM
same,Threshold concentration PPB,[2],XX (key: X=1 to 100 PPB; XX=100 to 1000 PPB)
O=S(=O)(NCCNC/C=C/c1ccc(Br)cc1)c1cccc2cnccc12 [H89],chromatophore response in the absence of forskolin,[10],aggregate; also recorded: aggregation
same,chromatophore response in the presence of forskolin,[10],continues to be responsive; also recorded: still results in cell aggregation
C[C@]12CCC(=O)C=C1CC[C@@H]1[C@@H]2[C@@H](O)C[C@@]2(C)[C@H]1CC[C@]2(O)C(=O)CO [Hydrocortisone],Chromatophore response Melanophores,[6],Hyp. D.
same,Chromatophore response Erythrophores,[1],HypD.
same,Response time Hr.,[2],XX (key: X=1-6 hr; XX=6-24 hr)
Cc1ncc([N+](=O)[O-])n1CCO [Metronidazole],2-Cell Cytosensor (second cell type included),[8],Normal
same,Response time Hr.,[2],XX (key: X=1-6 hr; XX=6-24 hr)
same,minimal effective concentration,[7],1 to 100 µg/mL
COC(=O)C=C(C)OP(=O)(OC)OC [Mevinphos],Chromatophore response Melanophores,[6],Imp.
same,Chromatophore response Erythrophores,[1],Imp. (FS)
same,Chromatophore response Iridophores,[11],"Hue change, then Imp."
same,Response time Hr.,[2],X (key: X=1-6 hr; XX=6-24 hr)
CCn1cc(C(=O)O)c(=O)c2ccc(C)nc21 [Nalidixic acid],2-Cell Cytosensor (second cell type included),[12],Normal
same,Response time Hr.,[2],XX (key: X=1-6 hr; XX=6-24 hr)
same,minimal effective concentration,[7],1 to 100 µg/mL
c1ccc2c(CC3=NCCN3)cccc2c1 [Naphazoline],Chromatophore response Xanthophores,[9],Disp.
same,Threshold concentration PPB,[2],XX (key: X=1 to 100 PPB; XX=100 to 1000 PPB)
NC[C@H](O)c1ccc(O)c(O)c1 [Norepinephrine],Chromatophore response Xanthophores,[9],Disp.
same,Chromatophore response Iridophores,[11],Hue changes (FS)
same,appearance of Betta chromatophores after exposure,[13],aggregation of chromatophore pigment is apparent
same,change of appearance of Hemichromis bimaculatus chromatophores,[14],change the appearance
same,response time of the cytosensor,[15],less than 1 minute
Cc1cc(C(C)(C)C)c(O)c(C)c1CC1=NCCN1 [Oxymetazoline],Chromatophore response Xanthophores,[9],Disp.
same,Threshold concentration PPB,[2],XX (key: X=1 to 100 PPB; XX=100 to 1000 PPB)
"O=S(=O)(F)Cc1ccccc1 [PMSF, phenylmethylsulfonyl fluoride]",effect of PMSF on sensitivity to H89,[10],heightens the sensitivity of cells to H89; also recorded: increased sensitivity to H89 inhibition
same,Chromatophore response (cell spans the chromatophore type columns),[2],Imp. (FS)
same,Threshold concentration PPM,[2],X (key: X=1 to 100 PPM; XX=100 to 1000 PPM)
CCOP(=O)(OCC)Oc1ccc([N+](=O)[O-])cc1 [Paraoxon],Chromatophore response Melanophores,[6],A/I (FS)
same,Chromatophore response Erythrophores,[1],Aggr. (FS)
same,Chromatophore response Iridophores,[11],Hue changes (FS)
C=C[C@H]1C[N@@]2CC[C@H]1C[C@H]2[C@H](O)c1ccnc2ccc(OC)cc12 [Quinine sulfate],2-Cell Cytosensor (second cell type included),[8],Normal
same,Response time Hr.,[2],XX (key: X=1-6 hr; XX=6-24 hr)
same,minimal effective concentration,[7],100 to 1000 µg/mL
[H]/N=C(/N)N[C@H]1[C@H](O)[C@@H](O)[C@H](O[C@@H]2O[C@@H](C)[C@](O)(C=O)[C@H]2O[C@@H]2O[C@@H](CO)[C@H](O)[C@@H](O)[C@@H]2NC)[C@@H](N/C(N)=N\[H])[C@@H]1O [Streptomycin],2-Cell Cytosensor (second cell type included),[12],Normal
same,Response time Hr.,[2],XX (key: X=1-6 hr; XX=6-24 hr)
same,minimal effective concentration,[7],1 to 100 µg/mL
c1ccc2c(c1)CCCC2C1=NCCN1 (centres unmarked) [Tetrahydrozoline],Chromatophore response Xanthophores,[9],Disp.
same,Threshold concentration PPB,[2],XX (key: X=1 to 100 PPB; XX=100 to 1000 PPB)
COP(=O)(OC)C(O)C(Cl)(Cl)Cl (centres unmarked) [Trichlorfon],Chromatophore response Erythrophores,[1],Imp. (FS)
same,Chromatophore response Iridophores,[11],Hue change (FS)
same,Response time Hr.,[2],X (key: X=1-6 hr; XX=6-24 hr)
c1ccc(C2CC2)c(OCC2=NCCN2)c1 [cirazoline],chromatophore response after forskolin and PMSF,[10],no aggregation occurred
same,chromatophore response in the absence of forskolin,[10],aggregate; also recorded: aggregation
same,chromatophore response in the presence of forskolin,[10],unresponsive; also recorded: not detectable
Cholera toxin,Chromatophore response Erythrophores,[1],Imp.
same,chromatophore appearance after exposure,[13],Pigment aggregation is evident
same,pigment aggregation in response to norepinephrine after pre-incubation with CTX,[13],impaired pigment aggregation in response to NE
same,selective sensitivity of color classes of chromatophores,[13],selective sensitivity of erythrophores to cholera toxin
same,change of appearance of Hemichromis bimaculatus chromatophores,[14],change the appearance
same,erythrophore response upon norepinephrine exposure,[14],impaired
same,melanophore response upon challenge by norepinephrine,[14],unimpaired
same,concentration at which inhibition of norepinephrine induced pigment aggregation is detected,[16],≥ 1 ng/mL
same,effect on Betta splendens chromatophores,[16],causes hyperdispersion
same,Response time Hr.,[2],X (key: X=1-6 hr; XX=6-24 hr)
same,Threshold concentration PPM,[2],X (key: X=1 to 100 PPM; XX=100 to 1000 PPM)
Penicillin,2-Cell Cytosensor (second cell type included),[12],Normal
same,Response time Hr.,[2],XX (key: X=1-6 hr; XX=6-24 hr)
same,Threshold concentration PPM,[2],X (key: X=1 to 100 PPM; XX=100 to 1000 PPM)
"Pertussis toxin: Bacterial toxin, Pertussis toxin",Chromatophore response Melanophores,[6],Imp.
same,selective sensitivity of color classes of chromatophores,[13],melanophores to pertussis toxin
same,Response time Hr.,[2],X (key: X=1-6 hr; XX=6-24 hr)
same,Threshold concentration PPM,[2],X (key: X=1 to 100 PPM; XX=100 to 1000 PPM)
Ryanodine,Morphology Effect: Aggregation,[17],Yes and No
same,Morphology Effect: Dispersion,[17],No
same,Chromatophore response Erythrophores,[1],Aggr.
same,Threshold concentration PPB,[2],XX (key: X=1 to 100 PPB; XX=100 to 1000 PPB)
same,concentrations at which ryanodine acts as an antagonist of the same receptors,[18],> 1 µM
